In this assay the target is Recombinant MAPKAPK2 (MK-2) (Homo sapiens, UniProt P49137). The experiment in a line: Determination of MK-2 IC50 (HSP-peptide phosphorylation, anion exchange resin capture assay). The format is biochemical.
The mark [1] stands for this setting: MAPKAP2 Avg. IC50, MK-2 inhibiting activity, Table I.

For orientation: IC50 means the point on the concentration scale where inhibition reaches its midpoint.

Structures are written as SMILES. Counter-ions that a name gives are not always drawn.

Sequence of Recombinant MAPKAPK2 (MK-2) (P49137 whole entry, species assumed): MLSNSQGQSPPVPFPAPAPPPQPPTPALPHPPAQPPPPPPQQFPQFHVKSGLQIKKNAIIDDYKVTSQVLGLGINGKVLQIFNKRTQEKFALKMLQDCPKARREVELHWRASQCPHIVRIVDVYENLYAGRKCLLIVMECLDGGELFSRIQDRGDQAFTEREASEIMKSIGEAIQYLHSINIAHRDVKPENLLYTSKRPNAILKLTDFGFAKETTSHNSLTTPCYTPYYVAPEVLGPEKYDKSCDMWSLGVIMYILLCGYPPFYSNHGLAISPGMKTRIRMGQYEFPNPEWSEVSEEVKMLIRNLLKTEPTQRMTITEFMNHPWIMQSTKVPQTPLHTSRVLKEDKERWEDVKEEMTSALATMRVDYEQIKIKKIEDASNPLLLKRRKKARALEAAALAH
Procedure: The phosphorylation of HSP-peptide ([sequence]) by MAPKAPK2 was measured using an anion exchange resin capture assay method. […] The reaction was terminated and [γ^33P]ATP was removed from solution by the addition of 150 μl of AG 1×8 ion exchange resin in 900 mM sodium formate pH 3.0. A 50 μl aliquot of head volume was removed from the quenched reaction mixture and added to a 96-well plate, 150 μl of Microscint-40 (Packard) was added and the amount of phosphorylated-peptide was determined.
Compounds are evaluated as potential inhibitors of the MK2 kinase by measuring their effects on MK2 phosphorylation of the peptide substrate. Compounds may be screened initially at two concentrations prior to determination of IC50 values. Screening results are expressed as percent inhibition at the concentrations of compound tested. For IC50 value determinations, compounds are tested at six concentrations in ten-fold serial dilutions with each concentration tested in triplicate. Results are expressed as IC50 values in micromolar. The assay is performed at a final concentration of 2% DMSO.

As to `O=C1NCCc2[nH]c(-c3ccnc(/C=C(/F)c4ccccc4)c3)cc21` [Example 497, trifluoroacetate], the IC50 (MAPKAP2 Avg. IC50) was found to be 136 nM.

On to `CC1CNC(=O)c2cc(-c3ccnc(-c4ccccc4F)c3)[nH]c21` (centres unmarked) [Example 505], for which, where the note is “MAPKAP2 Avg. IC50”, the IC50 worked out at 145 nM.

With `O=C1NCCc2[nH]c(-c3ccnc(-c4ccc(OCC(O)CN5CCC[C@@H]5CN5CCCC5)cc4)c3)cc21` (stereo partly drawn) [Example 508, 2-[2-(4-{2-hydroxy-3-[(2R)-2-(pyrrolidin-1-ylmethyl)pyrrolidin-1-yl]propoxy}phenyl)pyridin-4-yl]-1,5,6,7-tetrahydro-4H-pyrrolo[3,2-c]pyridin-4-one trifluoroacetate], the 50% inhibitory concentration (IC50) (MAPKAP2 Avg. IC50) turned out to be 149 nM.

Regarding `O=C1NCCc2[nH]c(-c3cc(-c4ccc(Oc5ccccc5)cc4)ncc3F)cc21` [Example 509, 2-[5-fluoro-2-(4-phenoxyphenyl)pyridin-4-yl]-1,5,6,7-tetrahydro-4H-pyrrolo[3,2-c]pyridin-4-one trifluoroacetate], the IC50 (MAPKAP2 Avg. IC50) came out at 149 nM.

As for `O=C1NCCc2[nH]c(-c3ccnc(/C=C/c4ccc(C(F)(F)F)cc4F)c3)cc21` [Example 510, 2-(2-{(E)-2-[2-fluoro-4-(trifluoromethyl)phenyl]vinyl}pyridin-4-yl)-1,5,6,7-tetrahydro-4H-pyrrolo[3,2-c]pyridin-4-one trifluoroacetate], the IC50 (MAPKAP2 Avg. IC50) turned out to be 150 nM.

For the compound `CC(C)CCN(CCCc1ccc(-c2cc(-c3cc4c([nH]3)CCNC4=O)ccn2)cn1)CCC(C)C` [Example 511, 2-(6′-{3-(bis(3-methylbutyl)amino]propyl}-2,3′-bipyridin-4-yl)-1,5,6,7-tetrahydro-4H-pyrrolo[3,2-c]pyridin-4-one trifluoroacetate], where the note is “MAPKAP2 Avg. IC50”, the IC50 was found to be 151 nM.

With `O=C1NCCc2[nH]c(-c3ccnc(/C=C/c4ccccc4N4CCOCC4)c3)cc21` [Example 529, 2-{2-[(E)-2-(2-morpholin-4-ylphenyl)vinyl]pyridin-4-yl}-1,5,6,7-tetrahydro-4H-pyrrolo[3,2-c]pyridin-4-one trifluoroacetate], the half-maximal inhibitory concentration (IC50) (MAPKAP2 Avg. IC50) was found to be 171 nM.

In the case of `NCc1cccc(-c2cc(-c3cc4c([nH]3)CCNC4=O)ccn2)c1` [Example 551, 2-{2-[3-(aminomethyl)phenyl]pyridin-4-yl}-1,5,6,7-tetrahydro-4H-pyrrolo[3,2-c]pyridin-4-one trifluoroacetate], the IC50 (MAPKAP2 Avg. IC50) was determined as 207 nM.

For the compound `O=C1NCCc2[nH]c(-c3ccnc(/C=C/c4c(F)c(F)c(F)c(F)c4F)c3)cc21` [Example 563, trifluoroacetate], the IC50 (MAPKAP2 Avg. IC50) came out at 245 nM.

Take `Cc1cccc(/C=C/c2cc(-c3cc4c([nH]3)CCNC4=O)ccn2)c1C` [Example 577, trifluoroacetate]: for the setting “MAPKAP2 Avg. IC50”, the IC50 came to 279 nM.

For the compound `O=C1NCCc2[nH]c(-c3ccnc(/C=C/c4cccc(Oc5ccccc5)c4)c3)cc21` [Example 581, trifluoroacetate], for the setting “MAPKAP2 Avg. IC50”, the half-maximal inhibitory concentration (IC50) stood at 295 nM.

Regarding `C/C(=C\c1cc(-c2cc3c([nH]2)CCNC3=O)ccn1)c1ccccc1` [Example 582, trifluoroacetate], under “MAPKAP2 Avg. IC50”, the IC50 came out at 297 nM.

Regarding `O=C1NCCc2[nH]c(-c3ccnc(-c4ccc([N+](=O)[O-])cc4)c3)cc21` [Example 587], the IC50 (MAPKAP2 Avg. IC50) turned out to be 316 nM.

As to `CC(C)c1ccccc1/C=C/c1cc(-c2cc3c([nH]2)CCNC3=O)ccn1` [Example 599, trifluoroacetate], the IC50 (MAPKAP2 Avg. IC50) was found to be 342 nM.

`O=C1NCCc2[nH]c(-c3ccnc(/C=C/c4csc(-c5ccccc5)n4)c3)cc21` [Example 602, trifluoroacetate]: for the setting “MAPKAP2 Avg. IC50”, the IC50 came to 348 nM.

In the case of `Cc1cc(C)c(/C=C\c2cc(-c3cc4c([nH]3)CCNC4=O)ccn2)cc1C` [Example 604, trifluoroacetate], under “MAPKAP2 Avg. IC50”, the IC50 came to 354 nM.

As for `O=C1NCCc2[nH]c(-c3ccnc(/C=C\C=C\c4ccccc4)c3)cc21` [Example 610], the IC50 (MAPKAP2 Avg. IC50) came to 365 nM.

Regarding `O=C1NCCc2[nH]c(-c3ccnc(/C=C\c4cc5ccccc5s4)c3)cc21` [Example 623, trifluoroacetate], the half-inhibitory concentration (IC50) (MAPKAP2 Avg. IC50) is 442 nM.

`O=C1NCCc2[nH]c(-c3ccnc(-c4cncc5ccccc45)c3)cc21` [Example 627, trifluoroacetate]: for the setting “MAPKAP2 Avg. IC50”, the 50% inhibitory concentration (IC50) came out at 447 nM.

`O=C1NC(C2CC2)Cc2[nH]c(-c3ccnc(-c4cccc(NC(=O)C5CCCC5)c4)c3)cc21` (centres unmarked) [Example 634, trifluoroacetate]: the 50% inhibitory concentration (IC50) (MAPKAP2 Avg. IC50) was 509 nM.

With `O=C1NCCc2[nH]c(-c3ccnc(/C=C/c4ccc(-c5ccccc5)cc4)c3)cc21` [Example 639, trifluoroacetate], the IC50 (MAPKAP2 Avg. IC50) worked out at 562 nM.

Regarding `CCCCc1cccc(-c2cc(-c3cc4c([nH]3)CCNC4=O)ccn2)c1` [Example 659, trifluoroacetate], the IC50 (MAPKAP2 Avg. IC50) is 721 nM.

For the compound `O=C1NCCc2[nH]c(-c3ccnc(-c4cccc(CN5CCCC5)c4)c3)cc21` [Example 660, trifluoroacetate], the IC50 (MAPKAP2 Avg. IC50) came out at 750 nM.

Turning to `O=C1NCCc2[nH]c(-c3ccnc(/C=C/c4ccccc4N4CCNCC4)c3)cc21` [Example 667, trifluoroacetate], the IC50 (MAPKAP2 Avg. IC50) was 791 nM.

Turning to `O=C1NCCc2[nH]c(-c3ccnc(/C=C/c4ccccc4-c4ccccc4)c3)cc21` [Example 670, trifluoroacetate], the 50% inhibitory concentration (IC50) (MAPKAP2 Avg. IC50) stood at 816 nM.

In the case of `O=C1NCCc2[nH]c(-c3ccnc(/C=C/c4ccccc4N4CCCCC4)c3)cc21` [Example 671, trifluoroacetate], the IC50 (MAPKAP2 Avg. IC50) was found to be 820 nM.

Regarding `O=C1NCCc2[nH]c(-c3ccc(O)c(-c4cnc5ccccc5c4)c3)cc21` [Example 676], for the setting “MAPKAP2 Avg. IC50”, the IC50 worked out at 937 nM.

Turning to `O=C1NCCc2[nH]c(-c3ccnc(/C=C/c4ccc(-c5ccccc5)s4)c3)cc21` [Example 683, trifluoroacetate], the IC50 (MAPKAP2 Avg. IC50) came to 1020 nM.

For the compound `O=C1NCCc2[nH]c(-c3ccnc(/C=C\c4ccc(F)c(F)c4)c3)cc21` [Example 687, trifluoroacetate], for the setting “MAPKAP2 Avg. IC50”, the 50% inhibitory concentration (IC50) was determined as 1080 nM.

For the compound `O=C1NCCc2[nH]c(-c3ccnc(/C=C/c4ccccc4C4CCCCC4)c3)cc21` [Example 694, trifluoroacetate], under “MAPKAP2 Avg. IC50”, the IC50 worked out at 1150 nM.

Turning to `O=C1NCCc2[nH]c(-c3ccnc(/C=C/Cc4ccccc4)c3)cc21` [Example 713, trifluoroacetate], for the setting “MAPKAP2 Avg. IC50”, the 50% inhibitory concentration (IC50) turned out to be 1760 nM.

Regarding `O=C1NCCc2[nH]c(-c3ccnc(/C=C/c4c(Cl)cccc4N4CCOCC4)c3)cc21` [Example 715, trifluoroacetate], the concentration for half-maximal inhibition (IC50) (MAPKAP2 Avg. IC50) was 1800 nM.

As for `COCCN(C)c1ccccc1/C=C/c1cc(-c2cc3c([nH]2)CCNC3=O)ccn1` [Example 716, trifluoroacetate], for the setting “MAPKAP2 Avg. IC50”, the IC50 was 1810 nM.

On to `C=CC(=O)N(CCNC(=O)OC(C)(C)C)c1ccc(-c2cc(-c3cc4c([nH]3)CCNC4=O)ccn2)cn1` [Example 732, trifluoroacetate], for which, for the setting “MAPKAP2 Avg. IC50”, the IC50 worked out at 2330 nM.

On to `O=C1NCCc2[nH]c(-c3ccnc(/C=C\c4cccnc4)c3)cc21` [Example 747, trifluoroacetate], for which, where the note is “MAPKAP2 Avg. IC50”, the IC50 is 3330 nM.

Turning to `O=C1NCCc2[nH]c(-c3ccnc(/C=C\Cc4ccccc4)c3)cc21` [Example 749, trifluoroacetate], the half-inhibitory concentration (IC50) (MAPKAP2 Avg. IC50) came out at 3750 nM.

As for `Cn1c(-c2ccnc(-c3cnc4ccccc4c3)c2)cc2c1CCNC2=O` [Example 750, 1-methyl-2-(2-quinolin-3-ylpyridin-4-yl)-1,5,6,7-tetrahydro-4H-pyrrolo[3,2-c]pyridin-4-one], where the note is “MAPKAP2 Avg. IC50”, the IC50 came out at 4130 nM.

As for `CN(N)c1cc(-c2cc3c([nH]2)CCNC3=O)ccn1` [Example 756, 2-[2-(1-methylhydrazino)pyridin-4-yl]-1,5,6,7-tetrahydro-4H-pyrrolo[3,2-c]pyridin-4-one], for the setting “MAPKAP2 Avg. IC50”, the IC50 was found to be 4910 nM.

In the case of `CCN(CC)c1ccccc1/C=C/c1cc(-c2cc3c([nH]2)CCNC3=O)ccn1` [Example 762, trifluoroacetate], where the note is “MAPKAP2 Avg. IC50”, the IC50 worked out at 5770 nM.

In the case of `C[C@@H]1CN(c2ccccc2/C=C/c2cc(-c3cc4c([nH]3)CCNC4=O)ccn2)C[C@H](C)O1` [Example 766, 2-[2-((E)-2-{2-[(2R,6S)-2,6-dimethylmorpholin-4-yl]phenyl}vinyl)pyridin-4-yl]-1,5,6,7-tetrahydro-4H-pyrrolo[3,2-c]pyridin-4-one trifluoroacetate], under “MAPKAP2 Avg. IC50”, the 50% inhibitory concentration (IC50) turned out to be 7540 nM.

As to `O=C1NC(c2ccccc2)Cc2[nH]c(-c3ccnc(-c4cccc(F)c4)c3)cc21` (centres unmarked) [Example 767, 2-[2-(3-fluorophenyl)pyridin-4-yl]-6-phenyl-1,5,6,7-tetrahydro-4H-pyrrolo[3,2-c]pyridin-4-one trifluoroacetate], the IC50 (MAPKAP2 Avg. IC50) turned out to be 7750 nM.

Take `O=C1NCC(c2ccccc2)c2[nH]c(-c3ccnc(-c4cnc5ccccc5c4)c3)cc21` (centres unmarked) [Example 768, 7-phenyl-2-(2-quinolin-3-ylpyridin-4-yl)-1,5,6,7-tetrahydro-4H-pyrrolo[3,2-c]pyridin-4-one trifluoroacetate]: the concentration for half-maximal inhibition (IC50) (MAPKAP2 Avg. IC50) was 7980 nM.

Consider `N/N=C(\c1ccccc1)c1cc(-c2cc3c([nH]2)CCNC3=O)ccn1` [Example 786, 2-{2-[(E)-hydrazono(phenyl)methyl]pyridin-4-yl}-1,5,6,7-tetrahydro-4H-pyrrolo[3,2-c]pyridin-4-one trifluoroacetate], for which the 50% inhibitory concentration (IC50) (MAPKAP2 Avg. IC50) amounted to 14300 nM.

For `O=C(NCc1ccccc1)c1cc(-c2cc3c([nH]2)CCNC3=O)ccn1` [Example 787, trifluoroacetate], the half-maximal inhibitory concentration (IC50) (MAPKAP2 Avg. IC50) came out at 14400 nM.

As for `O=C1NCCc2[nH]c(-c3cc(F)nc(-c4ccccc4F)c3)cc21` [Example 802, 2-[2-fluoro-6-(2-fluorophenyl)pyridin-4-yl]-1,5,6,7-tetrahydro-4H-pyrrolo[3,2-c]pyridin-4-one trifluoroacetate], the IC50 under setting [1] worked out at 20000 nM.

With `NCCc1[nH]c(-c2ccnc(NN)c2)cc1C(=O)NN` [Example 817, 2-(2-aminoethyl)-5-(2-hydrazinopyridin-4-yl)-1H-pyrrole-3-carbohydrazide], the half-inhibitory concentration (IC50) under setting [1] is 20000 nM.

In the case of `C=CC(=O)Nc1cccc(-c2cc(-c3cc4c([nH]3)CCNC4=O)ccn2)c1` [N-[3-[4-(4-oxo-4,5,6,7-tetrahydro-1H-pyrrolo[3,2-c]pyridin-2-yl)pyridin-2-yl]phenyl}acrylamide], the “kind of MK-2 inhibition (irreversible)” value is recorded as “irreversible inhibitor”.

Values taken from patent US20040209897A1 (Pharmacia Corporation, priority 2002, published 2004).
